Data set [1] in a line: Pharmacokinetics after single intravenous administration. Particulars: 6 mg/kg single i.v. The format is in vivo, beagle dogs. The method, then: The stock solution was diluted 10-fold in 10% bovine serum albumin solution in 0.1M sodium phosphate buffer (pH 5.8) and mixed by vortex until a homogeneous emulsion was obtained. […] Fresh formulations of both drugs were prepared prior to each administration, and the drugs were administrated by a slow bolus injection within approximately 3 minutes, at a dose of 6 mg/kg (1.2 ml/kg), adjusted to the individual animal body weight.
Plasma was separated by centrifugation, and stored at −70° C. until HPLC analysis. WinNonlin™ software was used for the analysis of the pharmacokinetic data.

The test system of data set [2] is Mia-PaCa pancreatic carcinoma tumors. Kind of data set: Xenograft model of pancreatic carcinoma.
The test system of data set [3] is H-82 SCLC tumors. Kind of data set: Xenograft model of small-cell lung carcinoma.
The test system of data set [4] is OVCAR-3 ovarian carcinoma tumors. Kind of data set: Xenograft model of ovarian carcinoma. The format is in vivo, athymic nude mice. To be noted: for growth inhibition vs. the control group: one week post last administration. The source says:
Tumor-bearing mice, injected only with the vehicle solution served as the control group.

Data set [5] can be described thus: Maximal tolerated dose (MTD). Particulars: female, athymic nude, mouse, in vivo, ip; intraperitoneally, once a week for three weeks, nude mice; read-out: maximal tolerate dose (MTD). As to the method:
Drug treatment was initiated on day 11, when tumors reached an average volume of 119 mm^3 ATT-11T was administered in a vehicle comprising 5% DMSO, 5% NMP, 10% ETOH, 40% PEG-400 and 40% PG. […] . […] The drugs were administered intraperitoneally.

Data set [6] has as its system SW-620 colorectal carcinoma tumors. The format is in vivo, athymic nude mice. To be noted: for tumor growth inhibition: one week after the last administration. The method, then:
Drug treatment was initiated on day 11, when tumors reached an average volume of 119 mm^3 ATT-11T was administered in a vehicle comprising 5% DMSO, 5% NMP, 10% ETOH, 40% PEG-400 and 40% PG. […] The drugs were administered intraperitoneally.

Data set [7] relates to A375-melanoma cells. Kind of data set: Cytotoxicity in cultured A375-melanoma cells (XTT cell viability). The format is cell-based. Particulars: Homo sapiens, read-out: IC50 (drug concentration that inhibited 50% of the cell growth). As to the method:
Cells were grown in RPMI 1640 (Gibco, UK) supplemented with 10% FBS (Gibco, UK) 2 mM of L-glutamin (Gibco, UK), 20 mM HEPES buffer (Beit-Haemek, Israel), 100 units/ml of penicillin, and 100 μg/ml of streptomycin (Gibco, UK). Cells were cultured in humidified atmosphere containing 5% CO2 at 37° C. Medium was routinely changed twice a week, and cells were sub-cultured with 0.25% trypsin/EDTA (Beit-Haemek, Israel) when reaching 85% confluence.
ATT-11T was produced by Aptuit-Laurus (India). The compound was dissolved in DMSO. […] The cells were incubated for 24 hours at 37° C. with serial dilutions of ATT-11T (or CPT 11), dissolved in growing medium. Cell viability was then determined, using the XTT reagent (Beit-Haemek, Israel). At the end of the incubation period, tetrazolium dye was added, and formation of a colored product formazan was measured at 450 nm using a microplate reader (ELx800, Bio-Tek instruments Inc.). Cell viability vs. drug concentration was plotted, and data were fitted with a non-linear regression analysis using GraphPad prisma ver.5.0 software. […]
On the technique in general: Formazan colour is commonly taken as a measure of viable cells.

The nature of data set [8]: Adverse effects and body weight in A375 tumor-bearing mice. Particulars: for gain of initial body weight: day 1 of treatment up to day 29 of inoculation. The format is in vivo, nude mice. As to the method:
For the evaluation of potential adverse effects of ATT-11T, nude mice, bearing the A375 melanoma tumors and treated with ATT-11T as described above, were monitored for adverse effects immediacy after drug administration, and also twice a week, through one day after last dose. The evaluation protocol consisted of gross observation, registration of abnormal signs, and determination of body weight. Potential body weight loss (BWL) was calculated as % BWL=100−(BWdays/BWday1×100), where day 1 is the first day of treatment and day x is the day of assessment thereafter.

For data set [9], the system named is A375 melanoma tumors. Kind of data set: Xenograft model of melanoma: tumor regression, growth inhibition and growth delay. Type of data set: in vivo, athymic nude mice. Particulars: for Tumor volume inhibition (TVI): one week after the last dose; for tumor growth at day 30 after the last dose: 58 days after tumor cell inoculation; for growth inhibition: one week after last administration. The method, then:
Tumor-bearing mice, injected only with the vehicle solution served as controls.
ATT11-T (Aptuit-Luarus, India) was administered in a vehicle as described above. Tumor-bearing mice injected only with the vehicle solution served as controls. […] Tumor volume was evaluated as described above.
Drug-induced delay in tumor growth was assessed by two measures: (i). Tumor volume inhibition (TVI %) at one week after the last treatment in treated versus control tumors, which was calculated according to the Formula TVI (%)=(1-T/C)×100, where T and C are the tumor volume of the treated and control groups, respectively; and (ii). Tumor growth delay (TGD), assessed as the time period (days) of treatment-induced delay in tumor reaching a pre-determined volume of 3,500 mm^3, as compared to the vehicle-treated controls.

[10] abbreviates: 20 mg/kg i.v. once a week for 3 weeks.
The mark [11] stands for this setting: 40 mg/kg i.v. once a week for 3 weeks.

Each structure is given as a SMILES string. Where two headings read alike, the source gives them in different places.

Consider two compounds from US9192680B2, “Pharmaceutical compounds” (APOSENSE LTD., priority 2010, dated 2015).

One may read the MTD as the largest dose that counted as tolerated. `CCc1c2c(nc3ccc(OC(=O)N4CCC(N5CCCCC5)CC4)cc13)-c1cc3c(c(=O)n1C2)COC(=O)[C@]3(O)CC` [CPT-11, irinotecan, reference compound]: in [1] (dogs), the “plasma level of derived SN-38 at 24 hours after administration” value is reported as “below detection level”. Moreover, the figures for the “% tumor growth delay (% TGD) to 1,000 mm^3” value in data set [2] (18 mg/kg i.v. (equimolar to 20 mg/kg ATT-11T)) and in [2] (36 mg/kg i.v. (equimolar to 40 mg/kg ATT-11T)) were 43% and 76%, respectively. Also, the “tumor growth inhibition (TGI) vs. control tumors” value in [2] (36 mg/kg i.v. once a week for 3 weeks, one week after the last administration) is 42%. In addition, the “tumor growth inhibition vs. the control group” value in [3] (36 mg/kg i.v. once a week for three weeks) is on record as 67%. Moreover, in data set [4] (18 mg/kg i.v. once a week for three weeks), the “growth inhibition vs. the control group” value was 83%. In addition, the maximal tolerated dose (MTD) in [5] is 100 mg/kg. Further, the tumor growth inhibition in data set [6] ([…]) is recorded as 85%. Besides, the IC50 in data set [7] (A-375, A375 cells, 24 hours incubation, XTT) stood at 10.1 µM.

As for `CCc1c2c(nc3ccc(OC(=O)N4CCC(CCC(C)(COC(C)(C)C)COC(C)(C)C)CC4)cc13)-c1cc3c(c(=O)n1C2)COC(=O)C3(O)CC` (centres unmarked) [ATT-11T], the “plasma level of derived SN-38 at 48 hours after administration” value in data set [1] (dogs) was “still detectable”. The “AUC of ATT-11T relative to that of CPT-11” value in [1] (dogs, parent drug) is 4 fold. In data set [1] (dogs, parent drug), the “increase in t1/2 of ATT-11T over CPT-11” value is listed as 3.8 fold. Moreover, the half-life in [1] (dog, in vivo, iv, female beagle dogs, read-out: plasma half-life (t1/2) of the parent drug (converted)) was 25.6 h. The “% tumor growth delay (% TGD) to 1,000 mm^3” value in [2] (setting [10]) is listed as 86%; in data set [2] (setting [11]), 152%. The entries for the “days post tumor inoculation to reach average tumor volume of 1,000 mm^3” value in data set [2] (setting [10]) and in data set [2] (setting [11]) were 39 days and 53 days, respectively. The “tumor growth inhibition (TGI)” value in [2] (20 mg/kg i.v. once a week for 3 weeks, one week after the last administration) stood at 48%. The “tumor growth inhibition (TGI) vs. control tumors” value in data set [2] (40 mg/kg i.v. once a week for 3 weeks, one week after the last administration) came out at 86%. Moreover, the “tumor growth inhibition vs. the control group” value in data set [3] (40 mg/kg i.v. once a week for three weeks) is 92%. Besides, the “growth inhibition vs. the control group” value in data set [4] (20 mg/kg i.v. once a week for three weeks) stood at 99%. Also, the average tumor volume in [4] (20 mg/kg i.v., day 42 (21 days post last dose)) amounted to 46 mm^3. Further, in [5], the MTD at 3 weeks was found to be 150 mg/kg. In addition, the “tumor growth 136 days post last treatment (161 days post tumor inoculation)” value in [6] (MTD 150 mg/kg i.p.) is given as “no tumor growth”. In addition, the tumor growth inhibition in data set [6] (MTD 150 mg/kg intraperitoneally once a week for three weeks) stood at 100%. Further, the “gain of initial body weight” value in data set [8] (5 mg/kg) worked out at 7%; in data set [8] (20 mg/kg) it was 5%. For the same compound, in data set [8] (both doses, 5 and 20 mg/kg), the “tolerability (adverse effects, weight loss)” value was “well-tolerated”. Moreover, the “Tumor volume inhibition (TVI)” value in data set [9] (5 mg/kg i.v. twice a week for three weeks) and in [9] (20 mg/kg i.v. twice a week for three weeks) was 100% each time. Further, the “tumor growth at day 30 after the last dose” value was “little” in data set [9] (5 mg/kg) and “no growth” in data set [9] (20 mg/kg). The growth inhibition in data set [9] (ATT-11T 5 mg/kg i.v. three times a week for three weeks) and in data set [9] (ATT-11T 20 mg/kg i.v. three times a week for three weeks) was 100% in each case. The IC50 in data set [7] (A-375, 24 h) was determined as 3.3 µM.
